# Test results from BindingDB's records for doi:10.1016/j.bmcl.2021.128422 (Tohoku Medical and Pharmaceutical University, 2021).
# Biological target: Maltase-glucoamylase (Homo sapiens, UniProt O43451)
# Assay: Inhibition of alpha-glucosidase (unknown origin) using p-nitrophenyl-alpha-D-glucopyranoside as substrate incubated for 50 mins by microplate reader analysis
# Maltase-glucoamylase, sequence (O43451 whole entry): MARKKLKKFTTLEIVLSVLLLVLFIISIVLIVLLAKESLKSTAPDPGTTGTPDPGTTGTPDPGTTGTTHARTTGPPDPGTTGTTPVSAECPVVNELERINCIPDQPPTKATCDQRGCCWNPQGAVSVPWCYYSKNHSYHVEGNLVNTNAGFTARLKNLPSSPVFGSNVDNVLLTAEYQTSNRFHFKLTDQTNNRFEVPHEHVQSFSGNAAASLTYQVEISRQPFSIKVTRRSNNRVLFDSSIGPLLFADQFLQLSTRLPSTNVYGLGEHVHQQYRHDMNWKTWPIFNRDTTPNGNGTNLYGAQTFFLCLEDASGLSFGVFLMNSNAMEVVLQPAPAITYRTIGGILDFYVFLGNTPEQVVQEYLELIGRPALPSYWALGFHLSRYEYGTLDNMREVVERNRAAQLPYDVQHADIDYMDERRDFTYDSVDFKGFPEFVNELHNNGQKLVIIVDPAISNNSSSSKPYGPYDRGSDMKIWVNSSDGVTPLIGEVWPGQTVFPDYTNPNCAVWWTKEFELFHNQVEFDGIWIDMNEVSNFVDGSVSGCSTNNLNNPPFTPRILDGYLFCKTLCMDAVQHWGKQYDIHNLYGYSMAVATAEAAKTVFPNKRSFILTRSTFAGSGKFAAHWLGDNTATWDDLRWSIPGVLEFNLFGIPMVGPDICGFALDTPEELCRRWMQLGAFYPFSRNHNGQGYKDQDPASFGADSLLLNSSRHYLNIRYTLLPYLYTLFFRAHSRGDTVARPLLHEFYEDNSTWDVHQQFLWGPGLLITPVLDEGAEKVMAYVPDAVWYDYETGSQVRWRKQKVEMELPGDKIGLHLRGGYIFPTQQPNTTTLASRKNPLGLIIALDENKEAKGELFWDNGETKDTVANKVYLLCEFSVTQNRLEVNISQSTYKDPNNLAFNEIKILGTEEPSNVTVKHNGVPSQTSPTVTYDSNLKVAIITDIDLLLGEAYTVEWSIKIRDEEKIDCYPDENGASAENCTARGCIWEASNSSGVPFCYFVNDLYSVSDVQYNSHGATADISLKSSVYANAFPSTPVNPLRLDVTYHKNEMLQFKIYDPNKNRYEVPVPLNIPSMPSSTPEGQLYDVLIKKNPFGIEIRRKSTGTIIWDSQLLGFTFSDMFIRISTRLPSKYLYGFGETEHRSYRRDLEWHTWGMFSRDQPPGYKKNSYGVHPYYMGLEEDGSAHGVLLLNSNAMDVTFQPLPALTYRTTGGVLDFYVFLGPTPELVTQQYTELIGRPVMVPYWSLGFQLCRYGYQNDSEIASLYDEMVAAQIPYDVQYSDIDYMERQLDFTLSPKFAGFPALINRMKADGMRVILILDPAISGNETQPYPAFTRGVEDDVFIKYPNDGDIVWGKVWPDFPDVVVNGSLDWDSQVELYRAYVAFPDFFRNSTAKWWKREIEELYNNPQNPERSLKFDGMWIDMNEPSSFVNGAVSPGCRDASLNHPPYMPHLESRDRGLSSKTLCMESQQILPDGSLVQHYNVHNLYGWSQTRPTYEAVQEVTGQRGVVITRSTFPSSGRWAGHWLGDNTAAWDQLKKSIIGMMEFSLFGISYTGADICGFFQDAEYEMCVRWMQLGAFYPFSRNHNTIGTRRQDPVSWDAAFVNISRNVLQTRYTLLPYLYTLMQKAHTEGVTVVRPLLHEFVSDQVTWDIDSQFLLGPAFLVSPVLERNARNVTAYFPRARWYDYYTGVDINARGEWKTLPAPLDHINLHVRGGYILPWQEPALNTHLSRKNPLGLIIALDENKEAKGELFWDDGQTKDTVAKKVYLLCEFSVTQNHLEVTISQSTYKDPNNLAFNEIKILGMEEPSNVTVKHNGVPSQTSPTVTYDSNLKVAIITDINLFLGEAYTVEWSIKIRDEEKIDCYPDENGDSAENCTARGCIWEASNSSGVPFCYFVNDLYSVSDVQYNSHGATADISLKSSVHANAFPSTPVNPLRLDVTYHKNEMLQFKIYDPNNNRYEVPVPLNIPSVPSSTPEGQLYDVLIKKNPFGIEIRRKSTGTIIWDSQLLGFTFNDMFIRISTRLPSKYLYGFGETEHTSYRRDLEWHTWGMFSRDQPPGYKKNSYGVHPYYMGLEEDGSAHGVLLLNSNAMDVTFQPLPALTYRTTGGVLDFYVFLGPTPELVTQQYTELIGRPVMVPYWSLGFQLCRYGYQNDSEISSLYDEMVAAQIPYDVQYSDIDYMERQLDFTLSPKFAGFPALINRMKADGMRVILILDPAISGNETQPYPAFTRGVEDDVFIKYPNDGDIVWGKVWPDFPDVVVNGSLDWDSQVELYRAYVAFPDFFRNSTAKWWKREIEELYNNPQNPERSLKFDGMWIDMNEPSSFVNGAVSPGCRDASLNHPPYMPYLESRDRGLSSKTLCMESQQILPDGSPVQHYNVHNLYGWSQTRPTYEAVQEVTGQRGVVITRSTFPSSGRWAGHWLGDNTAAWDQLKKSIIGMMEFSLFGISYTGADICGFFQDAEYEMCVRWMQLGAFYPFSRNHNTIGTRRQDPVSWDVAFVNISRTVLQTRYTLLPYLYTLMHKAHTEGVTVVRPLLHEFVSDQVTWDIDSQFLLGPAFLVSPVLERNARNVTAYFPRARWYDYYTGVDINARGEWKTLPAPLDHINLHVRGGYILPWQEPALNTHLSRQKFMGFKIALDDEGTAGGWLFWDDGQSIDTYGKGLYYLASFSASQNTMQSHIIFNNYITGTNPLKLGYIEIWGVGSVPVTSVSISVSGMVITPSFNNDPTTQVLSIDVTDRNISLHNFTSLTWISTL
row,SMILES,IC50 [µM]
1,C=C1C(=O)O[C@@H]2/C=C(\C)CC/C=C(\CO)C[C@@H](OC(=O)/C(C)=C/C)[C@@H]12,> 25
2,C=C1C(=O)O[C@@H]2/C=C(\C)C[C@H](O)/C=C(\C)C[C@@H](OC(=O)/C(=C\C)COC(C)=O)[C@@H]12,> 25
3,C=C1C(=O)O[C@@H]2/C=C(\C)C[C@H](O)/C=C(\C)C[C@@H](OC(=O)/C(=C\C)CO)[C@@H]12,> 28
4,C=C1C(=O)O[C@@H]2/C=C(\C)CC/C=C(\C)C[C@@H](OC(=O)/C(=C/CO)CO)[C@@H]12,> 28
5,"O=c1c(O)c(-c2ccc(O)c(O)c2)oc2cc(O)cc(O)c12 [2-(3,4-dihydroxyphenyl)-3,5,7-trihydroxy-chromone;hydrate]",10.8

# Second part, the compound after the results:
row,IC50 [µM],SMILES
1,> 25,C=C1C(=O)O[C@@H]2/C=C(\C)CC/C=C(\C)C[C@@H](OC(=O)/C(=C/C)COC(C)=O)[C@@H]12
2,> 25,C=C1C(=O)O[C@@H]2/C=C(\C)[C@@H](O)C/C=C(\C)C[C@@H](OC(=O)/C(=C\C)COC(C)=O)[C@@H]12
3,> 29,C=C1C(=O)O[C@@H]2/C=C(\C)CC/C=C(\C)C[C@@H](OC(=O)/C(=C\C)CO)[C@@H]12
4,> 29,C=C1C(=O)O[C@@H]2/C=C(\C)CC/C=C(\C)C[C@@H](OC(=O)/C(=C\COC(C)=O)CO)[C@@H]12
5,> 29,C=C1C(=O)O[C@@H]2/C=C(\C)CC/C=C(\C)C[C@@H](OC(=O)/C(=C/C)CO)[C@@H]12
